Reference: the supplement of paper PMC8671470

Columns and labels:
Details in all cases: 72 h
BV-173 [1] = test system: BV-173
Outline: (§1)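 Fifteen myeloid leukaemia cell lines were seeded in RPMI 1640 at a density titrated to the linear growth range. Each line went into 384-well plates with compounds acoustically pre-printed at five tenfold doses from 1 to 10,000 nM, in duplicate, and was incubated for 72 h at 37 °C with 5% CO2. Luminescent ATP viability was normalised to vehicle and to a positive control at 10 µM. The IC50 came from four-parameter log-logistic dose–response fits.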

HEL [2] = test system: HEL
Outline: as §1

HL-60 [3] = test system: HL-60
Outline: as §1

K-562 [4] = test system: K-562
Outline: as §1

KCL-22 [5] = test system: KCL-22
Outline: as §1

KG-1 [6] = test system: KG-1
Outline: as §1

KU-812 = test system: KU-812
Outline: as §1

LAMA-84 [7] = test system: LAMA-84
Outline: as §1

ML-2 [8] = test system: ML-2
Outline: as §1

MOLM-13 [9] = test system: MOLM-13
Outline: as §1

MV4-11 [10] = test system: MV4-11
Outline: as §1

Mono-Mac-6 = test system: Mono-Mac-6
Outline: as §1

NOMO-1 = test system: NOMO-1
Outline: as §1

SHI-1 [11] = test system: SHI-1
Outline: as §1

THP-1 = test system: THP-1
Outline: as §1

HL-60 [12] = assay: cell viability (% survival relative to DMSO control); higher = less cytotoxic
Outline: (§2)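 HL-60 cells grown in RPMI 1640 with 10% FBS were rescreened against the full library in 384-well plates, in duplicate, at five tenfold concentrations from 1 to 10,000 nM, alongside DMSO or 100 nM of one of three metabolic inhibitors for 72 h at 37 °C, 5% CO2. Reference wells contained DMSO or 10 μM proteasome inhibitor. Viability was read with CellTiter-Glo and normalised to these reference wells, and where reported, area under the curve was taken from four-parameter log-logistic fits in drc and PharmacoGx.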

BV-173 [13] = assay: cell viability (% survival relative to DMSO control, bortezomib = 0%); higher = less cytotoxic
Outline: (§3)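 Fifteen myeloid leukaemia cell lines (10 AML, 5 CML) were seeded at a density titrated to the linear growth range into 384-well plates pre-printed with compounds at 1, 10, 100, 1000 or 10000 nM in duplicate. Plates were incubated for 72 h at 37 °C with 5% CO2. Viability was then read by CellTiter-Glo luminescence. Each value is percent survival averaged over the duplicates, with vehicle set to 100% and a 10 µM positive control to 0%.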

HEL [14] = assay: as above
Outline: as §3

HL-60 [15] = assay: as above
Outline: as §3

K-562 [16] = assay: as above
Outline: as §3

KCL-22 [17] = assay: as above
Outline: as §3

KG-1 [18] = assay: as above
Outline: as §3

LAMA-84 [19] = assay: as above
Outline: as §3

ML-2 [20] = assay: as above
Outline: as §3

MOLM-13 [21] = assay: as above
Outline: as §3

MV4-11 [22] = assay: as above
Outline: as §3

SHI-1 [23] = assay: as above
Outline: as §3

HL-60 [24] = assay: area under dose-response curve (viability, 1 nM-10 uM) (fraction (0-1)); higher = more sensitive
Outline: as §2

NCc1ccc(S(N)(=O)=O)cc1 [4-Homosulfanilamide]
Details | IC50 (cell viability) [µM]
BV-173 [1] | > 10
HEL [2] | > 10
HL-60 [3] | > 10
K-562 [4] | > 10
KCL-22 [5] | > 10
KG-1 [6] | > 10
KU-812 | > 10
LAMA-84 [7] | > 10
ML-2 [8] | > 10
MOLM-13 [9] | > 10
MV4-11 [10] | > 10
Mono-Mac-6 | > 10
NOMO-1 | > 10
SHI-1 [11] | > 10
THP-1 | > 10

cell viability [%], HL-60 [12]
Details | 0.001 µM | 0.01 µM | 0.1 µM | 1 µM | 10 µM
co-treatment: AZD3965 100 nM | 102 | 106 | 99.06 | 95.9 | 99.2
co-treatment: DMSO vehicle | 103.6 | 105 | 100 | 101 | 96.4
co-treatment: GSK2194069 100 nM | 101 | 103 | 98.5 | 96.9 | 97.5
co-treatment: pictilisib 100 nM | 98.6 | 107 | 97.5 | 95.5 | 98.3

Details | area under dose-response curve, co-treatment: AZD3965 100 nM | area under dose-response curve, co-treatment: DMSO vehicle | area under dose-response curve, co-treatment: GSK2194069 100 nM | area under dose-response curve, co-treatment: pictilisib 100 nM | cell viability, 1 nM [%] | cell viability, 10 nM [%] | cell viability, 100 nM [%] | cell viability, 1000 nM [%] | cell viability, 10000 nM [%]
BV-173 [13] | – | – | – | – | 96.7 | 85.9 | 91.7 | 96.6 | 97.6
HEL [14] | – | – | – | – | 94.2 | 71.2 | 99.3 | 98 | 106
HL-60 [15] | – | – | – | – | 88.1 | 97 | 109 | 82.1 | 110
HL-60 [24] | < 0.0301 | < 0.0301 | < 0.0301 | < 0.0301 | – | – | – | – | –
K-562 [16] | – | – | – | – | 85.1 | 90 | 87.5 | 104 | 102
KCL-22 [17] | – | – | – | – | 99.7 | 107 | 103 | 103 | 106
KG-1 [18] | – | – | – | – | 91.4 | 96 | 97.7 | 99.1 | 96.6
LAMA-84 [19] | – | – | – | – | 99.5 | 97.7 | 94.7 | 99.3 | 100
ML-2 [20] | – | – | – | – | 90.9 | 92.3 | 94.7 | 91.8 | 102
MOLM-13 [21] | – | – | – | – | 80.7 | 93.2 | 87.3 | 80 | 105
MV4-11 [22] | – | – | – | – | 93.9 | 87.5 | 90.2 | 89.9 | 106
SHI-1 [23] | – | – | – | – | 96.8 | 107 | 104 | 102 | 111

Oc1ncc(F)c(O)n1 [5-fluorouracil]
Details | IC50 (cell viability) [µM]
BV-173 [1] | 3.48
HEL [2] | 2.3
HL-60 [3] | 1.07
K-562 [4] | > 10
KCL-22 [5] | 2.68
KG-1 [6] | 4.31
KU-812 | > 10
LAMA-84 [7] | 6.31
ML-2 [8] | 2.3
MOLM-13 [9] | 0.353
MV4-11 [10] | 0.435
Mono-Mac-6 | 0.711
NOMO-1 | 9.6
SHI-1 [11] | 2.69
THP-1 | > 10

cell viability [%], HL-60 [12]
Details | 0.001 µM | 0.01 µM | 0.1 µM | 1 µM | 10 µM
co-treatment: AZD3965 100 nM | 97.8 | 98.3 | 102 | 102.9 | 55
co-treatment: DMSO vehicle | 101.99 | 97.89 | 98.8 | 102 | 76.1
co-treatment: GSK2194069 100 nM | 99.6 | 104 | 99 | 100 | 75.9
co-treatment: pictilisib 100 nM | 102 | 75.9 | 113 | 96.5 | 68.7

Details | area under dose-response curve, co-treatment: AZD3965 100 nM | area under dose-response curve, co-treatment: DMSO vehicle | area under dose-response curve, co-treatment: GSK2194069 100 nM | area under dose-response curve, co-treatment: pictilisib 100 nM | cell viability, 1 nM [%] | cell viability, 10 nM [%] | cell viability, 100 nM [%] | cell viability, 1000 nM [%] | cell viability, 10000 nM [%]
BV-173 [13] | – | – | – | – | 99 | 110 | 85.6 | 86.4 | 16.3
HEL [14] | – | – | – | – | 95.1 | 104 | 84.2 | 73.8 | 31.8
HL-60 [15] | – | – | – | – | 113 | 120 | 138 | 61.2 | 27.1
HL-60 [24] | < 0.0301 | < 0.0301 | < 0.0301 | < 0.0301 | – | – | – | – | –
K-562 [16] | – | – | – | – | 101 | 114 | 91.5 | 108 | 68.9
KCL-22 [17] | – | – | – | – | 98.9 | 120 | 98.3 | 84.3 | 30.6
KG-1 [18] | – | – | – | – | 101 | 114 | 85.8 | 83.5 | 46.2
LAMA-84 [19] | – | – | – | – | 91.1 | 98.5 | 99.8 | 86.9 | 48.8
ML-2 [20] | – | – | – | – | 93 | 99.4 | 102 | 78.9 | 29.5
MOLM-13 [21] | – | – | – | – | 128 | 109 | 82.2 | 22.4 | 2.01
MV4-11 [22] | – | – | – | – | 96 | 111 | 85 | 26.3 | 1.31
SHI-1 [23] | – | – | – | – | 91.6 | 110 | 102 | 70.9 | 44.6
